Test results published in patent US20250066807A1, “CYP72A219 GENES CONFERRING HERBICIDE TOLERANCE” (COLORADO STATE UNIVERSITY RESEARCH FOUNDATION, priority 2021, published 2025).
“Also recorded” adds a separate entry of the source.

Tests used:
[1] = tested on: CYP81E; parameters: species or system Amaranthus palmeri; conditions: in vivo
Protocol: (§1) Transcript abundance was measured in the 11 resistant survey populations for genes CYP72A219 (a), CYP81E, and a CYP not implicated in herbicide resistance (FIG. 4B-D). Known sensitive populations HPPD S and HPPD S 12021 were included as references, as was known resistant population HPPD R 12001, the population previously characterized for increased expression of CYP72A219 (a) and CYP81E. Relative transcript abundance was quantified using qRT-PCR on cDNA synthesized from RNA extracted from individuals before and 6 h after tembotrione treatment, using normalization genes as previously described.

[2] = tested on: a CYP not implicated in herbicide resistance; parameters: species or system Amaranthus palmeri; conditions: in vivo
Protocol: as §1

[3] = tested on: CYP72A219 (a); parameters: species or system Amaranthus palmeri; conditions: in vivo
Protocol: as §1

[4] = tested on: CYP72A219 gene from chromosome 16 (SEQ ID NO: 7); test: tembotrione metabolism in yeast expressing CYP72A219 (c); format: in vitro ADME, Amaranthus palmeri; conditions: SEQ ID NO: 7 vector; 150 μL of 1000 μM tembotrione, 24 h, 30 C; FIG. 3D-E
Protocol: (§2) A functional validation of the candidate genes was conducted in a yeast system. In brief, the yeast lines WAT11 and WAT21 express the plant cytochrome P450 reductase genes ATR1 and ATR2, respectively, and have the endogenous yeast cytochrome P450 reductase gene knocked out. The sequences of the three CYP72A219 genes and the CYP81E gene were codon-optimized for expression in yeast and synthesized by Genewiz in vector pUC57. The genes were cloned into yeast expression vector pYES2 with a galactose inducible promoter, a uracil synthesis gene, and an ampicillin resistance gene. The vectors were first transformed into E. coli and selected on ampicillin, followed by sequencing to confirm the correct insertion of the P450 gene sequence. Plasmid was extracted from transformed colonies for transformation into yeast lines WAT11 and WAT21 using a LiAc protocol and plated on glucose-containing media lacking uracil to select for transformed cells. The empty pYES2 vector was included as a negative control, and a vector containing the Nsf1 gene from corn was included as a positive control known to metabolize the HPPD-inhibiting herbicides mesotrione and tembotrione. […] The incubation solution was then centrifuged, and the supernatant was analyzed using LC/MS-MS to measure parent tembotrione and hydroxy tembotrione metabolites. […]

[5] = tested on: Palmer amaranth (Amaranthus palmeri); conditions: in vivo; cited from earlier work
[6] = tested on: CYP81E and CYP72A219 genes; parameters: species or system Amaranthus palmeri; conditions: in vivo
[7] = tested on: CYP72A219 gene from chromosome 4 (MAKER-25717; SEQ ID NO: 1); test: tembotrione metabolism in yeast expressing CYP72A219 (a); format: in vitro ADME, Amaranthus palmeri; conditions: CYP72A219 SEQ ID NO: 1 vector; 150 μL of 1000 μM tembotrione, 24 h, 30 C; FIG. 3C
Protocol: as §2

[8] = tested on: second CYP72A219 gene from chromosome 4 (SEQ ID NO: 5); test: tembotrione metabolism in yeast expressing CYP72A219 (b); format: in vitro ADME, Amaranthus palmeri; conditions: SEQ ID NO: 5 vector; 150 μL of 1000 μM tembotrione, 24 h, 30 C; FIG. 3D-E
Protocol: as §2

[9] = tested on: yeast lines WAT11 and WAT21; test: tembotrione metabolism in yeast with empty pYES2 vector (negative control); format: in vitro ADME; conditions: 150 μL of 1000 μM tembotrione, 24 h, 30 C, FIG. 3A
Protocol: as §2

[10] = tested on: variant allele of this CYP72A219 gene (SEQ ID NO: 3); test: tembotrione metabolism in yeast expressing variant allele of CYP72A219 (a); format: in vitro ADME, Amaranthus palmeri; conditions: variant allele SEQ ID NO: 3 vector; 150 μL of 1000 μM tembotrione, 24 h, 30 C
Protocol: as §2

[11] = tested on: CYP81E gene (SEQ ID NO: 9); test: tembotrione metabolism in yeast expressing CYP81E; format: in vitro ADME, Amaranthus palmeri; conditions: CYP81E SEQ ID NO: 9 vector; 150 μL of 1000 μM tembotrione, 24 h, 30 C; FIG. 3F
Protocol: as §2

[12] = tested on: Palmer amaranth; test: tembotrione dose response (plant survival) of Palmer amaranth survey populations; format: in vivo, Amaranthus palmeri; conditions: eleven survey populations; FIG. 4A
Protocol: A survey of Palmer amaranth in the US was conducted to identify additional populations resistant to the HPPD inhibiting herbicide tembotrione. A tembotrione dose response was conducted to compare the response of the survey populations to a known sensitive population. The population USA 12001 (the population used for all previous work to identify CYP450 genes) was used as a known resistant reference.

[13] = tested on: CYP72A219 (a), CYP72A219 (b), CYP72A219 (c) and CYP81E genes; parameters: species or system Amaranthus palmeri; conditions: in vivo

CS(=O)(=O)c1ccc(C(=O)C2C(=O)CCCC2=O)c(Cl)c1COCC(F)(F)F [tembotrione, 2-[2-chloro-4-(methylsulfonyl)-3-[(2,2,2,-tri-fluoroethoxy)methyl]benzoyl]-1,3-cyclo-hexanedione]
CYP81E expression constitutively or after tembotrione treatment [1]: No resistant populations from the survey had increased expression of CYP81E | expression of CYP unrelated to herbicide resistance before or after tembotrione treatment [2]: had not increased expression in any populations | CYP72A219 (a) expression following tembotrione treatment [3]: increased CYP72A219 (a) expression | formation of hydroxy-tembotrione [4]: did not show formation of hydroxy-tembotrione | detoxification to 4-hydroxy tembotrione metabolite followed by glycosylation [5]: rapidly detoxify | formation of 4-hydroxy tembotrione metabolites in NES [5]: at a slower rate than in NER | rate of hydroxylation, NER compared with NES [5]: more rapidly in NER | expression of both genes after treatment with tembotrione (qRT-PCR) [6]: high expression of both genes | formation of hydroxy-tembotrione metabolite [7]: showed formation of the hydroxy-tembotrione metabolite; also recorded: produced the same hydroxy-tembotrione metabolite as produced in planta | formation of hydroxy-tembotrione [8]: did not show formation of hydroxy-tembotrione | parent tembotrione and hydroxy tembotrione metabolites in supernatant (LC/MS-MS) [9]: only intact tembotrione and no metabolites; also recorded: did not detoxify tembotrione | formation of hydroxy-tembotrione metabolite [10]: also showed formation of the hydroxy-tembotrione metabolite | formation of hydroxy-tembotrione [11]: did not show formation of hydroxy-tembotrione | LD50 (dose of tembotrione required to cause 50% mortality in the population) relative to reference sensitive population [12]: significantly higher LD50 | expression of all four cytochrome P450 genes following tembotrione treatment [13]: induced
